{
  "source": "patent US20260335323A1",
  "about": "“CHIMERIC MOLECULE” (UCL Business Ltd, priority 2023, published 2026)",
  "type_in_all_cases": "cell-based, human",
  "key": {"[1]": {"system": "c-MYC controlled genes", "experiment": "RT-qPCR of c-MYC controlled genes in CAL51 cells", "conditions": "100 nM, 72 hours, vs (+)-JQ1 at equivalent concentration and duration", "protocol": "FIG. 11. RT-qPCR quantification of expression of c-MYC controlled genes in CAL51 triple negative breast cancer cell line treated with DMSO, 100 nM (+)-JQ1 or 100 nM NZ-147 for 72 hours. […] MDM2 (A) and CCNE (B) are controlled by cMYC in oncogenic settings, PAICS (C) is a putative target of c-MYC, and eIF4E (D) is a known target of cMYC. n=3, *p<0.05, ** p<0.01, *** p<0.001.\nRNA was extracted with the Qiagen RNeasy Mini kit following manufacturers protocol. RT-qPCR SYBR assay was carried out with Mesa Blue following manufacturers instructions, 80 ng RNA per well, experimental triplicates, BioRad CTX Connect qPCR machine. RNA levels were normalized to GAPDH. Experiments were done in biological triplicate. The primers used were as follows:\nThe levels of c-MYC controlled genes (determined using RT-qPCR) in CAL51 triple negative breast cancer cell line after treatment with DMSO, 100 nM (+)-JQ1 or 100 nM NZ-147 for 72 hours is shown in FIG. 11. In particular MDM2 (FIG. 11A) and CCNE (FIG. 11B) are controlled by cMYC in oncogenic settings, PAICS (FIG. 11C) is a putative target of c-MYC, and elF4E (FIG. 11D) is a known target of c-MYC."}, "[2]": {"system": "A549 cells", "experiment": "Cell viability assay (CellTiter Glo), A549", "conditions": "A549, increasing concentrations", "protocol": "(§1) A549 and H1299 cells were seeded in OptiPlate-384 well plates and treated with increasing concentrations of (+)-JQ1 or NZ-147 from 0 μM to 10 µM in Example 8 and with increasing concentrations of NZ-175 from 0 µM to 10 µM in Example 9. Cells were treated for 120 h before using the luciferase based CellTiter Glo assay (Promega) to measure cell viability.\n(§2) Cell viability assay was performed in A549 and H1299 cells, which were treated with different concentrations of (+)-JQ1 or NZ-147 at 100 nM for 72 hours (FIG. 10B).\n(§3) Cell viability assay was performed in A549 and H1299 cells, which were treated with different concentrations of NZ-147 at 100 nM for 72 hours (FIG. 16B)."}, "[3]": {"system": "H1299 cells", "experiment": "Cell viability assay (CellTiter Glo), H1299", "conditions": "H1299, increasing concentrations", "protocol": "as §1, §2, §3"}},
  "data": [
    {"smiles": "Cc1sc2c(c1C)C(c1ccc(Cl)cc1)=N[C@@H](CC(=O)NCCOCCOCCOCCn1cc(COc3ccc([C@@H](NC(=O)Nc4cc(C(F)(F)F)cc(C(F)(F)F)c4)C(=O)Nc4ccc(F)cc4F)cc3)nn1)c1nnc(C)n1-2", "note": "[NZ-147, (R)-2-(3-(3,5-bis(trifluoromethyl)phenyl)ureido)-2-(4-((1-(1-((S)-4-(4-chlorophenyl)-2,3,9-trimethyl-6H-thieno[3,2-f][1,2,4]triazolo[4,3-a][1,4]diazepin-6-yl)-2-oxo-6,9, 12-trioxa-3-azatetradecan-14-yl)-1H-1,2,3-triazol-4-yl)methoxy)phenyl)-N-(2,4-difluorophenyl) acetamide]", "values": [
      {"measurement": "impact on c-MYC controlled genes vs (+)-JQ1", "setting": "[1]", "value": "significantly more profound impact"},
      {"measurement": "percentage of live cells", "setting": "[2]", "value": "dose-dependent decrease in the percentage of live cells"},
      {"measurement": "percentage of live cells", "setting": "[3]", "value": "dose-dependent decrease in the percentage of live cells"}
    ]}
  ]
}
